Values quoted from earlier work as cited in patent US6565840B1, “Monomeric compositions effective as wound closure devices” (Closure Medical Corporation, priority 1996, dated 2003).

CC(=O)C(C(C)=O)C(C)=O [triacetylmethane]
pKa: 5.9
